Results taken from patent US20210353648A1, “GRAPIPRANT UNIT DOSAGE FORMS” (Arrys Therapeutics, Inc., priority 2018, published 2021).

Legend:
Format in all cases: in vivo, BALB/c mice
CT-26 tumors = test: Immune cell composition of CT-26 tumors by flow cytometry; conditions: after 7 days dosing; Compound B 15 mg/kg BID, anti-PD-1 10 mg/kg Q3D; versus vehicle
Experimental: The immune cell composition of Compound B (as described in example 9 above) as a single agent and combined with a mouse anti-PD1 antibody was evaluated in the CT-26 mouse colon adenocarcinoma model grown in BALB/c mice. Mice were inoculated subcutaneously in the right flank with 5×10^5 tumor cells. When tumors reached an average size of 85 mm^3 dosing was initiated. The dosing regimens in the 4 separate cohorts comprising 10 mice each are listed as follows:
After dosing animals for 7 days, tumors were resected and used to prepare single cell suspensions. Live cells representing tumor and immune cells were stained with cocktails of antibodies targeting multiple immune cell markers (anti-CD45, anti-CD3, anti-CD4, anti-CD8, anti-CD25, anti-FoxP3, anti-PD-1, anti-CD11c) conjugated to different fluorescent tags. The stained cells were fixed in 4% paraformaldehyde and quantified using a multi-color flow cytometer (Fortessa). The data was analyzed with FloJo software.

[1] = test system: CT-26 mouse colon adenocarcinoma model; test: Anti-tumor activity in the CT-26 model, additional experiment with anti-PD1; conditions: single agents (Compound B 15 mg/kg BID; anti-PD1 10 mg/kg BIW) versus vehicle, n=7/group
Experimental: The antitumor activity of Compound B as a single agent and combined with a mouse anti-PD1 antibody was evaluated in the CT-26 mouse colon adenocarcinoma model grown in BALB/c mice in an additional experiment. Mice were inoculated subcutaneously in the right flank with 5×10^5 tumor cells. When tumors reached an average size of 91 mm^3 dosing was initiated. The dosing regimens in the 4 separate cohorts comprising 7 mice each are as follows: […]

[2] = test system: 4T1 mouse breast cancer model; test: Anti-tumor activity in the 4T1 breast cancer mouse model, alone and with anti-CTLA4
Experimental: The antitumor activity of Compound B (as described in example 9 above) as a single agent and combined with a mouse anti-CTLA4 antibody was evaluated in the 4T1 mouse breast cancer model grown in BALB/c mice. Mice were inoculated subcutaneously in the right flank with 3×10^5 tumor cells. When tumors reached an average size of 100 mm^3 (7 days after tumor cell inoculation) dosing was initiated.

[3] = test system: CT-26 mouse colon adenocarcinoma model; test: Anti-tumor activity in the CT-26 colon adenocarcinoma mouse model, alone and with anti-PD-1
Experimental: The antitumor activity of Compound B as a single agent and combined with a mouse anti-PD-1 antibody was evaluated in the CT-26 mouse colon adenocarcinoma model grown in BALB/c mice. Mice were inoculated subcutaneously in the right flank with 5×10^5 tumor cells. When tumors reached an average size of 71 mm^3 (6 days after tumor cell inoculation) dosing was initiated. The dosing regimens in the 8 separate cohorts comprising 10 mice each are as follows: […]

[4] = test system: 4T1 mouse breast cancer model; test: Anti-tumor activity in the 4T1 model, additional experiment with anti-PD1; conditions: Compound B 15 mg/kg BID single agent, n=7/group
Experimental: The antitumor activity of Compound B as a single agent and combined with a mouse anti-PD1 antibody was evaluated in the 4T1 mouse breast cancer model grown in BALB/c mice in an additional experiment. Mice were inoculated subcutaneously in the right flank with 3×10^5 tumor cells. When tumors reached an average size of 97 mm^3 dosing was initiated. The dosing regimens in the 4 separate cohorts comprising 7 mice each are as follows: […]

C[C@H](NC(=O)c1cc(Cl)cnc1Oc1cccc(F)c1)c1ccc(C(=O)O)cc1 [Compound B]
percentage of activated T cells (CD45, CD3, CD8; CD25 expression) (CT-26 tumors): did not | percentage of dendritic cells (CD45, CD11c positive) (CT-26 tumors): increased percentage | regulatory T cells (CD45, CD4, FoxP3, CD25 positive) (CT-26 tumors): significant decrease | tumor growth kinetics during the period of dosing [1]: less than that of the vehicle group | mice still alive ([2]; 47 days after tumor inoculation): none | tumor growth kinetics during the period of dosing ([2]; single agents (Compound B 15 mg/kg BID; anti-CTLA4) versus vehicle, n=10/group): decreased relative to the vehicle treated mice | tumor growth kinetics during the period of dosing ([3]; 15 mg/kg QD and BID p.o., single agent, versus vehicle, n=10/group): not notably different from the vehicle treated mice | mice still alive ([3]; 99 days after tumor inoculation): 1 out of 10 mice | tumor free mice ([3]; 99 days after tumor inoculation, 10 mice per group): 1 mice | tumor growth kinetics during the period of dosing [4]: less than that of the vehicle group and anti-PD1 when dosed alone
